Laboratory results from the supplement of paper PMC8253809.

Tests used:
[1] = tested on: iAstro (astrocyte control); experiment: EC50 (inflection of fitted growth-inhibition curve) (log10 M)
Summary of the method: (§1)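 Patient-derived pHGG/DIPG cell lines and astrocyte controls were grown on 1% Geltrex-coated 384-well plates and exposed by pin tool to a 10-point threefold dilution series (mean top concentration 35 μM), in triplicate. Exposure was 7 days (iAstro 3 days) at 37 °C, 5% CO2. CellTiter-Glo luminescence was log2-transformed, normalised per plate to % activity between negative (solvent) and positive control wells, and pooled. EC50 and maximal response (yFin) come from the lowest-AICc three- or four-parameter log-logistic fit.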

[2] = tested on: DIPGX29 (H3.3 K27M diffuse intrinsic pontine glioma line); experiment: as above
Summary of the method: as §1

[3] = tested on: HGGX42 (H3.3 G34R paediatric high-grade glioma line); experiment: as above
Summary of the method: as §1

[4] = tested on: SUDIPGXVII (diffuse intrinsic pontine glioma line); experiment: as above
Summary of the method: as §1

[5] = tested on: SUDIPGVI (diffuse intrinsic pontine glioma line); experiment: as above
Summary of the method: as §1

[6] = tested on: HGGX39 (paediatric high-grade glioma line); experiment: as above
Summary of the method: as §1

[7] = tested on: SUDIPGXXI (diffuse intrinsic pontine glioma line); experiment: as above
Summary of the method: as §1

[8] = tested on: SUDIPGXIX (diffuse intrinsic pontine glioma line); experiment: as above
Summary of the method: as §1

[9] = tested on: SUDIPGIV (diffuse intrinsic pontine glioma line); experiment: as above
Summary of the method: as §1

[10] = tested on: DIPGX9 (diffuse intrinsic pontine glioma line); experiment: as above
Summary of the method: as §1

[11] = tested on: DIPGX7 (H3.3 K27M diffuse intrinsic pontine glioma line); experiment: as above
Summary of the method: as §1

[12] = tested on: HGGX2 (paediatric high-grade glioma line); experiment: as above
Summary of the method: as §1

[13] = tested on: HABS (astrocyte control); experiment: as above
Summary of the method: as §1

[14] = tested on: HGGX6 (H3.3 G34R paediatric high-grade glioma line); experiment: as above
Summary of the method: as §1

[15] = tested on: SUDIPGXIII (diffuse intrinsic pontine glioma line); experiment: as above
Summary of the method: as §1

[16] = tested on: DIPGX37 (H3.3 K27M diffuse intrinsic pontine glioma line); experiment: as above
Summary of the method: as §1

[17] = tested on: iAstro; experiment: maximal growth inhibition (yFin) relative to DMSO / staurosporine; higher = more efficacious
Summary of the method: as §1

[18] = tested on: DIPGX7; experiment: as above
Summary of the method: as §1

[19] = tested on: HABS; experiment: as above
Summary of the method: as §1

Row | SMILES | EC50 (log10 M) [1] | EC50 (log10 M) [2] | EC50 (log10 M) [3] | EC50 (log10 M) [4] | EC50 (log10 M) [5] | EC50 (log10 M) [6] | EC50 (log10 M) [7] | EC50 (log10 M) [8] | EC50 (log10 M) [9] | EC50 (log10 M) [10] | EC50 (log10 M) [11] | EC50 (log10 M) [12] | EC50 (log10 M) [13] | EC50 (log10 M) [14] | EC50 (log10 M) [15] | EC50 (log10 M) [16] | maximal growth inhibition [17] | maximal growth inhibition [18] | maximal growth inhibition [19]
1 | COC(=O)[C@]12CCC(C)(C)C[C@H]1[C@H]1C(=O)C=C3[C@@]4(C)C=C(C#N)C(=O)C(C)(C)[C@@H]4CC[C@@]3(C)[C@]1(C)CC2 [BARDOXOLONE METHYL] | -5.99 | -6.17 | -5.83 | -5.59 | -5.63 | -6.01 | -6.24 | -5.53 | -5.65 | -5.73 | -5.56 | -5.74 | -5.66 | -5.93 | -5.62 | -6.09 | 96.5% | 112% | 105%
2 | CC(C)(C)OC(=O)Nc1ccc(-c2cc(C(=O)NCCCCCCC(=O)NO)no2)cc1 [BML-281] | -5.37 | -5.53 | -5.45 | -5.09 | -4.92 | -4.94 | -6.1 | -5 | -5.19 | -5.48 | -4.92 | -5.43 | -4.89 | -5.04 | -4.89 | -5.46 | 50% | 91.7% | 74.1%
3 | CC(C)C[C@H](NC(=O)[C@H](CCc1ccccc1)NC(=O)CN1CCOCC1)C(=O)N[C@@H](Cc1ccccc1)C(=O)N[C@@H](CC(C)C)C(=O)[C@@]1(C)CO1 [CARFILZOMIB] | -8.68 | -5.73 | -6.77 | -6.36 | -6.71 | -6.2 | – | -6.53 | -7.24 | -7 | -7.29 | -7.54 | -6.6 | -6.37 | -5.36 | -6.68 | 87.1% | 92% | 108%
4 | CC(=O)c1ccc2c(c1)c1cc(C(C)=O)ccc1n2CCNC(C)C [CBL-0137] | -6.54 | -5.42 | -5.67 | -5.23 | -5.09 | -5.42 | -6.51 | -6.28 | -5.61 | -6.06 | -5.22 | -5.6 | -6.08 | -5.37 | -5.14 | -5.98 | 23.8% | 99.2% | 74.4%
5 | O=C(Nc1ccc(Nc2nccc(Nc3cc(C4CCCC4)[nH]n3)n2)cc1)Nc1cccc(C(F)(F)F)c1 [CD532] | -6.36 | -6.34 | -6.66 | -6.47 | -6.5 | -5.92 | -7.24 | -6.52 | -6.47 | -6.65 | -6.51 | -6.21 | -5.37 | -6.3 | -6.36 | -6.42 | 95.2% | 112% | 122%
6 | NC1CCC(Nc2cc(-c3cccc(NCc4cccc(F)c4)n3)c(Cl)cn2)CC1 (stereo unspecified) [CDK9-IN-2] | -5.35 | -6.87 | -7 | -6.67 | -6.92 | -5.75 | -7.4 | -6.93 | -6.76 | -7.13 | -6.76 | -5.72 | -5.73 | -6.96 | -5.75 | -6.76 | 85.7% | 90.4% | 98.5%
7 | C[C@@H](Oc1cc(-c2cnn(C3CCNCC3)c2)cnc1N)c1c(Cl)ccc(F)c1Cl [CRIZOTINIB] | -4.89 | -4.83 | -5.15 | -4.9 | -5.01 | -4.69 | -5.77 | -5.23 | -4.85 | -5.11 | -4.88 | -5.11 | -4.84 | -4.67 | -4.81 | -4.84 | 87.3% | 104% | 90.9%
8 | COc1ccc(-c2nc(N3CCOCC3)c3sc(CN(C)c4ncc(C(=O)NO)cn4)cc3n2)cn1 [CUDC-907] | -6.31 | -6.81 | -7.01 | -6.74 | -6.96 | -6.9 | -7.9 | -6.9 | -6.82 | -7.42 | -7.01 | -7 | -6.29 | -6.65 | -5.71 | -6.78 | 73.6% | 97.5% | 129%
9 | CCCc1cc(C)[nH]c(=O)c1CNC(=O)c1cc(-c2ccnc(N3CCN(C)CC3)c2)cc2c1cnn2C(C)C [GSK343] | -4.88 | -4.6 | -4.7 | – | -4.59 | -4.59 | -4.81 | -4.69 | -4.69 | -4.74 | -4.63 | -4.78 | -4.81 | -4.6 | -4.57 | -4.59 | 66.2% | 114% | 69%
10 | COc1ncc(-c2ccc3nccc(-c4ccnnc4)c3c2)cc1NS(=O)(=O)c1ccc(F)cc1F [OMIPALISIB] | -5.44 | -5.88 | -6.22 | -6.19 | -6.23 | -5.79 | -7.11 | -7 | -6.11 | -7.52 | – | -6 | -6.58 | -4.77 | -5.65 | -6.38 | 41.1% | – | 101%
11 | CCOc1cc(C(C)(C)C)ccc1C1=N[C@@](C)(c2ccc(Cl)cc2)[C@@](C)(c2ccc(Cl)cc2)N1C(=O)N1CCN(CCCS(C)(=O)=O)CC1 [RG7112] | -4.85 | -4.8 | -4.64 | -4.8 | -4.87 | -4.85 | -6.49 | -5.56 | -4.86 | -5.7 | -4.82 | -4.78 | -5.4 | -4.71 | -4.75 | – | 82.6% | 70.5% | 108%
12 | C=CCNC1=C2C[C@@H](C)C[C@H](OC)[C@H](O)[C@@H](C)/C=C(\C)[C@H](OC(N)=O)[C@@H](OC)/C=C\C=C(/C)C(=O)NC(=CC1=O)C2=O [TANESPIMYCIN] | -5.41 | -5.85 | -6.01 | -4.99 | -5.19 | -6.48 | -5.76 | -6.32 | -5.88 | -6.85 | – | -4.97 | -5.41 | -5.84 | -4.95 | -6.99 | 39.3% | – | 114%
